Results on nine molecules are retold here after US4510136A (priority 1983, dated 1985).

Counter-ions that a name gives are not always drawn.

What all share (type): in vivo
Experiment [1] has as its system Cercospora arachidicola. Briefly: Peanut early leafspot control on sprayed peanut seedlings (Example 84). To be noted: 100 ppm spray, day before inoculation; for pest or weed control at 100 ppm: Mycosphaerella arachidis, 360 h, read-out: % Control Peanut Easly Leafspot. How it is done:
These suspensions were sprayed to the point of run-off on peanut seedlings. The following day, the plants were inoculated with a spore suspension of Cercospora arachidicola, causal agent of peanut early leafspot, and incubated in a saturated humidity chamber at 27° for 24 hours and then in a growth room for an additional 14 days, when disease ratings were made. Treated plants from successful treatments had few or no leafspots while the untreated plants had numerous leafspots.

For experiment [2], the system named is Helminthosporium maydis. Nature of the experiment: Southern corn leaf blight control on sprayed corn seedlings (Example 83). Conditions: 100 ppm spray, day before inoculation; for pest or weed control at 100 ppm: Bipolaris maydis, 192 h. Here is the method:
The compounds of the previous examples were again dissolved in acetone in an amount equal to 6% of the final volume and then suspended at a concentration of 100 ppm in purified water containing 250 ppm of the surfactant TREM 014 (polyhydric alcohol esters). These suspensions were sprayed to the point of run-off on corn seedlings. The following day, the plants were inoculated with a spore suspension of Helminthosporium maydis, causal agent of southern corn leaf blight, and incubated in a saturated humidity chamber at 20° for 24 hours and then in a growth room for an additional 7 days, when disease ratings were made. Treated plants from successful treatments had few or no lesions while the untreated plants had numerous lesions on each leaf. Phytotoxicity expressed as growth reduction was observed on some of the plants in association with disease control.

The subject of experiment [3] is Phytophthora infestans. Nature of the experiment: whole plant or invertebrate. To be noted: for % Control of Tomato Late Blight: 100 ppm spray, day before inoculation; for pest or weed control at 100 ppm: Phytophthora infestans, in Solanum lycopersicum, 168 h, read-out: % Control of Tomato Late Blight, 100 ppm spray, day before inoculation.
Experiment [4] relates to Pyricularia oryzae. Briefly: whole plant or invertebrate. To be noted: for % Control of Rice Blast: 100 ppm spray, day before inoculation.
Experiment [5] has as its system Puccinia recondita var. tritici. Nature of the experiment: Wheat leaf rust control on sprayed wheat seedlings (Example 79). To be noted: 100 ppm spray, day before inoculation; for pest or weed control at 100 ppm: Puccinia recondita, 168 h. How it is done:
The compounds of this invention were dissolved in acetone in an amount equal to 6% of the final volume and then suspended at a concentration of 100 ppm in purified water containing 250 ppm of the surfactant TREM 014 (polyhydric alcohol esters). These suspensions were sprayed to the point of run-off on wheat seedlings. The following day, the plants were inoculated with a spore suspension of Puccinia recondita var. tritici, causal agent of wheat leaf rust, and incubated in a saturated humidity chamber at 20° for 24 hours and then in a growth room for an additional 7 days, when disease ratings were made. Treated plants from successful treatments had few or no rust pustules while the untreated plants had numerous rust pustules on each leaf.

Experiment [6] relates to Rhizoctonia solani. Nature of the experiment: Rice sheath blight control on sprayed rice seedlings (Example 87). To be noted: 100 ppm spray, day before inoculation; for pest or weed control at 100 ppm: Rhizoctonia solani, 168 h. How it is done: The compounds of the previous examples were again dissolved in acetone in an amount equal to 6% of the final volume and then suspended at a concentration of 100 ppm in purified water containing 250 ppm of the surfactant TREM 014 (polyhydric alcohol esters). This suspension was sprayed to the point of run-off on rice seedlings. The following day, the plants were inoculated with a mixture of bran and the mycelium of Rhizoctonia solani, causal agent of sheath blight of rice, and incubated in a growth room for 7 days. Disease ratings were then made. Treated plants from successful treatments had little sheath blight in contrast to untreated plants which were covered with sheath blight.

For experiment [7], the system named is Erysiphe cichoracearum. Briefly: Cucumber powdery mildew control on sprayed cucumber seedlings (Example 80). To be noted: 100 ppm spray, day before inoculation; for pest or weed control at 100 ppm: Golovinomyces cichoracearum, 168 h. Here is the method: These suspensions were sprayed to the point of run-off, on cucumber seedlings. The following day, the plants were inoculated with a spore suspension of the fungus Erysiphe cichoracearum, causal agent of cucumber powdery mildew, and incubated in a growth room for 7 days. Disease ratings were then made. Treated plants from successful treatments had little or no powdery mildew in contrast to untreated plants which were covered with powdery mildew. Phytotoxicity in the form of growth reduction or hormonal effects was observed on some of the plants in association with disease control.

For experiment [8], the system named is Venturia inaequalis. Briefly: Apple scab control on sprayed apple seedlings (Example 82). Conditions: Venturia inaequalis, 100 ppm spray, day before inoculation. Here is the method: These suspensions were sprayed to the point of run-off on apple seedlings. The following day, the plants were inoculated with a spore suspension of the fungus Venturia inaequalis, causal agent of apple scab, and incubated in a saturated humidity chamber at 20° for 24 hours and then in a growth room for an additional 10-12 days. Treated plants from successful treatments had fewer apple scab lesions when compared to untreated plants which were covered with scab lesions. Phytotoxicity expressed as growth reduction was observed on some of the plants in association with disease control.

As to “2:1 complex of [bis(4-Fluorophenyl)]methyl(1H-1,2,4-triazol-1-ylmethyl)silane and Curpic Chloride”, the “% Control Peanut Easly Leafspot” value in experiment [1] amounted to 100%. For the same molecule, the “% Control of Southern Corn Leaf Blight” value in experiment [2] is given as 0%. Besides, the “% Control of Tomato Late Blight” value in experiment [3] is given as 40%. Moreover, the “% Control of Rice Blast” value in experiment [4] was determined as 100%. Besides, the “% Control Wheat Rust” value in experiment [5] was 100%. For the same molecule, the “% Control of Rice Sheath Blight” value in experiment [6] is on record as 0%. Besides, the “% Control Cucumber Powdery Mildew” value in experiment [7] was found to be 100%.

As to `C[Si](Cn1cncn1)(c1ccc(Cl)cc1)c1ccccc1Cl` (centres unmarked) [2-Chlorophenyl(4-chlorophenyl)methyl(1H-1,2,4-triazol-1-ylmethyl)silane], the pest or weed control at 100 ppm was found to be 90% in experiment [1]; 60% in experiment [2]; 0% in experiment [3]; 90% in experiment [8]; 100% in experiment [5]; 70% in experiment [6]. Besides, the pest or weed control at 100 ppm in experiment [7] stood at 100%.

For the molecule `C[Si](Cn1cncn1)(c1ccc(F)cc1)c1ccc(-c2ccccc2)cc1` (centres unmarked) [(1,1'-Biphenyl-4-yl)(4-fluorophenyl)methyl(1H-1,2,4-triazol-1-ylmethyl)silane], the pest or weed control at 100 ppm amounted to 100% in experiment [1]; 80% in experiment [2]; 0% in experiment [3]; 100% in experiment [8]; 100% in experiment [5]; 0% in experiment [6]. The molecule further gave a pest or weed control at 100 ppm in experiment [7] of 100%.

With `C[Si](C)(Cn1cncn1)c1ccc(-c2ccccc2)cc1` [(1,1'-Biphenyl-4-yl)dimethyl(1H--1,2,4-triazol-1-ylmethyl)si] [4-Dodecylbenzenesulfonate Salt of (1,1'-Biphenyl-4-yl)dimethyl(1H-1,2,4-triazol-1-ylmethyl)silane], in experiment [2], the “% Control of Southern Corn Leaf Blight” value is given as 100%.

`CC(C)(C)O[Si](Cn1cncn1)(c1ccc(F)cc1)c1ccc(F)cc1` [(1,1-Dimethylethoxy)[bis(4-fluorophenyl)](1H-1,2,4-triazol-1-ylmethyl)silane]: the figures for the pest or weed control at 100 ppm in experiment [2] and in experiment [7] were 0% and 100%, respectively.

On to `CC(C)O[Si](C)(Cn1cncn1)c1ccc(F)cc1` (centres unmarked) [(4-Fluorophenyl)methyl(2-propoxy)(1H-1,2,4-triazol-1-ylmethyl)silane], for which the pest or weed control at 100 ppm in experiment [2] was 0%; in experiment [7], 100%.

As for `CC(C)O[Si](Cn1cncn1)(OC(C)C)c1ccccc1` [Phenylbis(2-propoxy)(1H-1,2,4-triazol-1-ylmethyl)silane], the pest or weed control at 100 ppm in experiment [1], in experiment [2], in experiment [3], in experiment [8], in experiment [5] and in experiment [6] was 0% throughout. The pest or weed control at 100 ppm in experiment [7] came out at 100%.

In the case of `C[Si](Cn1cncn1)(c1ccc(F)cc1)c1ccc(F)cc1.[Cl][Cu]` [[bis(4-Fluorophenyl)]methyl(1H-1,2,4-triazol-1-ylmethyl)silane, 1:1 complex with cuprous chloride], in experiment [1], the “% Control Peanut Easly Leafspot” value was 100%. Moreover, the “% Control of Southern Corn Leaf Blight” value in experiment [2] was found to be 0%. For the same molecule, the “% Control of Tomato Late Blight” value in experiment [3] was found to be 0%. In addition, in experiment [4], the “% Control of Rice Blast” value came to 90%. Moreover, the “% Control Wheat Rust” value in experiment [5] stood at 90%. Besides, the “% Control of Rice Sheath Blight” value in experiment [6] was 90%. Further, in experiment [7], the “% Control Cucumber Powdery Mildew” value was 100%.

For `CC(n1cncn1)[Si](C)(c1ccc(F)cc1)c1ccc(F)cc1` (centres unmarked) [bis(4-Fluorophenyl)methyl[1-(1H-1,2,4-triazol-1-yl)ethyl]silane], the pest or weed control at 100 ppm worked out at 100% in experiment [1]; 0% in experiment [3]; 0% in experiment [4] (Pyricularia oryzae, 168 h, read-out: % Control of Rice Blast, 100 ppm spray, day before inoculation); 100% in experiment [8]; 100% in experiment [5]; 80% in experiment [6]. In experiment [7], the pest or weed control at 100 ppm was determined as 100%.
